Data from PMC12081029, “Structural, Spectroscopic, and Docking Analysis of N,O‐Donor Ligand Metal Complex Nanoparticles With Hypolipidemic Effects via Lipoprotein Lipase Activation in High‐Fat Diet Mice” (Chemistry & Biodiversity, 2024).
Where “and” joins values, the source holds several entries; their conditions need not be identical. Equal entries are not always repeated. Where two headings read alike, the source gives them in different places.

Tests used:
[1] = system: Staphylococcus aureus; details: cited from earlier work
[2] = system: Aspergillus niger; design: method as in PMID 16740311; details: cited from earlier work
[3] = system: Salmonella typhi; design: method as in PMID 16740311; details: cited from earlier work
[4] = system: Escherichia coli; details: cited from earlier work
[5] = system: Bacillus subtilis; details: cited from earlier work
[6] = system: Aspergillus terreus; test: Agar diffusion, inhibition zone (ZOI) and activity index
[7] = system: Staphylococcus aureus; test: as above; details: Staphylococcus aureus
[8] = system: Staphylococcus aureus; test: MIC / MBC determination
[9] = system: lipoprotein lipase (L. lipase); test: Serum L. lipase activity in high-fat diet mice (fluorometric kit); assay type: in vivo; details: HFD C57BL/6 mice; for L. lipase (serum enzyme activity): 4 mg kg^−1 body weight in DMF, 3 months, mean ± SD
Method: (§1) This study employed 8‐week‐old male C57BL/6 mice of matched weight (around 20–25 g) from an inbred “genetically identical” strain. The mice were purchased from the National Research Center's Animal House. Then, they were subdivided into five groups, each group containing eight mice; four groups were treated with CETZ.2HCl (antihistamine drug) and its metal complexes, whereas one group was left untreated and classified as a control group. Animals were housed in modular plastic veterinary cages at air‐conditioned room, under pathogen‐free conditions. Mice were fed HFD, which consisted of carbs 42.0%, fat 23.0%, protein 17.0%, fiber 3.0%, minerals 5.0%, and moisture 10.0% for 3 months, together with administration of either CETZ.2HCl or its metal complexes (4 mg kg ^−1 body weight) in DMF [37]. Experiments were performed in accordance with the regulations of the Animal Care and Use Committee of the College of Veterinary Medicine, Mansoura University (MU‐ACUC), Egypt; MU‐ACUC (PHARM.R.24.02.30), complied with “Guide for the Care and Use of Laboratory Animals” (National Research Council publication 8th ed., USA, 2011).
(§2) Specimens of blood were gathered from the retro‐orbital sinus, under halothane (1.5 percent v/v halothane in oxygen) anesthesia via inhalation. The collected blood was allowed to clot, by centrifugation at 1600 rpm for 20 min, to obtain serum. Isolated sera were maintained at −80°C until tests of liver function in addition to lipid profiles were performed. For estimation of L. lipase activity, fluorometric L. lipase activity assay kit was utilized following the manufacturer's protocol (Cat. No. STA‐610, Cell BIOLABS INC., San Diego, USA). Serum T. chol. LDL, HDL, TG, ALT (alanine aminotransferase), AST (aspartate aminotransferase), and ALP (alkaline phosphatase) were examined with Roche kits using COBAS Integra 400 and COBAS Integra‐400 plus (Roche Diagnostics Limited, Switzerland).

[10] = system: Aspergillus terreus; test: MIC determination
[11] = system: Bacillus subtilis; test: Agar diffusion, inhibition zone (ZOI) and activity index; details: Bacillus subtilis
[12] = Serum lipid profile in high-fat diet mice; assay type: in vivo; details: HFD C57BL/6 mice, 4 mg kg^−1 body weight, 3 months, mean ± SD
Method: as §1, §2

[13] = system: Aspergillus niger; test: Agar diffusion, inhibition zone (ZOI) and activity index; details: Aspergillus niger
[14] = system: Escherichia coli; test: MIC / MBC determination
[15] = Serum liver function enzymes in high-fat diet mice; assay type: in vivo; details: HFD C57BL/6 mice, 4 mg kg^−1 body weight, 3 months, mean ± SD
Method: as §1, §2

[16] = system: Bacillus subtilis; test: MIC / MBC determination
[17] = system: Salmonella typhi; test: MIC / MBC determination; assay type: cell-based; details: Salmonella typhi
[18] = system: Aspergillus niger; test: MIC determination
[19] = system: Escherichia coli; test: Agar diffusion, inhibition zone (ZOI) and activity index; details: Escherichia coli
[20] = system: Salmonella typhi; test: as above; assay type: cell-based; details: Salmonella typhi
[21] = Table 9, preceding research ref [68]
[22] = 10^−3 M in DMF, 5 mm holes, 7 days at 30°C
[23] = ZOI of compound / ZOI of standard (colitrimazole) × 100
[24] = 10^−3 M in DMF, 5 mm holes, 20 h at 37°C
[25] = ZOI of compound / ZOI of standard (ampicillin) × 100
[26] = ZOI of compound / ZOI of standard (gentamicin) × 100

In the case of `O.O.O=C([O-])COCCN1CCN(C(c2ccccc2)c2ccc(Cl)cc2)CC1.O=[N+]([O-])[O-].[Cu+2].c1ccc(-c2ccccn2)nc1` (centres unmarked) [[(Cu(CETZ)(Bipy)(H2O)2(NO3)]], the AI ([1]; Table 9, Staphylococcus aureus ref [68]) is given as 105.7, the “Staphylococcus aureus (inhibition zone)” value [1, 21] is given as 24 ^+ ^3 ± 0.13 and the AI ([2]; Table 9, Aspergillus niger ref [68]) is given as 88.89. The “Aspergillus niger (inhibition zone)” value [2, 21] was 17.6 ^+ ^1 ± 0.11, the AI ([3]; Table 9, Salmonella typhi ref [68]) was 59.9 and the “Salmonella typhi (inhibition zone)” value [3, 21] was 12.4 ^+ ^1 ± 0.22. For the same molecule, the AI ([4]; Table 9, Escherichia coli ref [68]) was 113.3, the “Escherichia coli (inhibition zone)” value [4, 21] was 22.1 ^+ ^2 ± 0.005 and the AI ([5]; Table 9, Bacillus subtillis ref [68]) was 55.3. The “Bacillus subtillis (inhibition zone)” value [5, 21] was 15.7 ^+ ^1 ± 0.001.
For [Zn(CETZ)(Phen)(H2O)2Cl] [complex (2)], the ZOI [6, 22] was 12.0^NS ±1.71 mm, the AI [6, 23] was 68.57% and the ZOI [7, 24] was 15.2 ^+ ^1 ±0.74 mm. The AI [7, 25] was 66.9%, the MBC [8] was 0.057 µg/mL and 0.057 ± 0.002 µg/mL and the MIC [8] was 0.050 µg/mL and 0.050 ± 0.007 µg/mL. The “L. lipase (serum enzyme activity)” value [9] was 108.88 U/L, the “L. lipase (serum enzyme activity)” value ([9]; listed as Zn-CETZ Complex) was 108.88±20.0 U/L and the “mean L. lipase activity” value ([9]; rounded, 4 mg kg^−1 body weight) was 108.9 U L^−1. The MIC [10] was 0.050 µg/mL and 0.050 ± 0.02 µg/mL, the ZOI [11, 24] was 21.2 ^+ ^2 ±1.04 mm and the AI [11, 25] was 74.65%. The HDL [12] was 115.75 ± 13.32 mg/dL, the LDL [12] was 71.63 ± 6.5 mg/dL and the “Total Chol.” value [12] was 155.5 ± 16.01 mg/dL. The Trig [12] was 70.63 ± 6.05 mg/dL, the ZOI [13, 22] was 17.6 ^+ ^1 ±0.43 mm and the AI [13, 23] was 88.88%. For the same molecule, the MBC [14] was 0.063 ± 0.015 µg/mL, the MIC [14] was 0.050 µg/mL and 0.050 ± 0.02 µg/mL and the ALP [15] was 49.63 ± 6.16 U L^−1. The ALT [15] was 164.87 ± 35.27 U L^−1, the AST [15] was 156.5 ± 16.12 U L^−1 and the MIC [16] was 0.050 ± 0.01 µg/mL. The MBC [17] was 0.065 ± 0.014 µg/mL, the MIC [17] was 0.050 µg/mL and 0.050 ± 0.007 µg/mL and the MIC [18] was 0.025 µg/mL and 0.025 ± 0.01 µg/mL. For the same molecule, the ZOI [19, 24] was 7.9^NS ±0.34 mm, the AI [19, 26] was 40.5% and the ZOI [20, 24] was 18.0 ^+ ^2 ±0.17 mm. The AI [20, 26] was 86.9%.
